Source: ChEMBL document CHEMBL1137346, “Carbonic anhydrase inhibitors: clash with Ala65 as a means for designing inhibitors with low affinity for the ubiquitous isozyme II, exemplified by the crystal structure of the topiramate sulfamide analogue” (J Med Chem, 2006)
pKi: −log10 of the molar value.

Experiments:
[1] = biological target: Carbonic anhydrase 14 (Homo sapiens, UniProt Q9ULX7)
[2] = biological target: Carbonic anhydrase 7 (Homo sapiens, UniProt P43166)
[3] = biological target: Carbonic anhydrase 4 (Homo sapiens, UniProt P22748)
[4] = biological target: Carbonic anhydrase 13 (Mus musculus, UniProt Q9D6N1)
[5] = biological target: Carbonic anhydrase 5B, mitochondrial (Homo sapiens, UniProt Q9Y2D0)
[6] = biological target: Carbonic anhydrase 5A, mitochondrial (Homo sapiens, UniProt P35218)
Sequence of Carbonic anhydrase 5A, mitochondrial (P35218 whole entry): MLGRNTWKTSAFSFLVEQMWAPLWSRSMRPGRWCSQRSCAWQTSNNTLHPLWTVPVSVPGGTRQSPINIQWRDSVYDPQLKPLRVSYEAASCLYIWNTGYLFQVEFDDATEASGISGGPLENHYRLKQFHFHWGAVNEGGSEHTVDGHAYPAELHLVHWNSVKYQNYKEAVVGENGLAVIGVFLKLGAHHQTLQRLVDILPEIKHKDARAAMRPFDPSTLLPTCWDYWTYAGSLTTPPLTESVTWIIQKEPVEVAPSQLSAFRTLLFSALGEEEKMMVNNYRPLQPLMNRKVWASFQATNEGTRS

Sequence of Carbonic anhydrase 5B, mitochondrial (Q9Y2D0 whole entry): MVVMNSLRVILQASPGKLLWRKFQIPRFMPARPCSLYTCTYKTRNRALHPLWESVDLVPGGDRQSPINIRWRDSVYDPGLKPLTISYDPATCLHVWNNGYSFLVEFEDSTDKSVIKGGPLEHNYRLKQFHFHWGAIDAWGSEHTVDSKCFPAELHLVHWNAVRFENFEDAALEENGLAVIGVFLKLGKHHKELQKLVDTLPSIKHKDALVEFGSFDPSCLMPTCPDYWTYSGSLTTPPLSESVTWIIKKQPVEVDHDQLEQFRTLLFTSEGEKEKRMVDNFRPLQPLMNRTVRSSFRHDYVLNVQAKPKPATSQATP
Sequence of Carbonic anhydrase 14 (Q9ULX7 whole entry): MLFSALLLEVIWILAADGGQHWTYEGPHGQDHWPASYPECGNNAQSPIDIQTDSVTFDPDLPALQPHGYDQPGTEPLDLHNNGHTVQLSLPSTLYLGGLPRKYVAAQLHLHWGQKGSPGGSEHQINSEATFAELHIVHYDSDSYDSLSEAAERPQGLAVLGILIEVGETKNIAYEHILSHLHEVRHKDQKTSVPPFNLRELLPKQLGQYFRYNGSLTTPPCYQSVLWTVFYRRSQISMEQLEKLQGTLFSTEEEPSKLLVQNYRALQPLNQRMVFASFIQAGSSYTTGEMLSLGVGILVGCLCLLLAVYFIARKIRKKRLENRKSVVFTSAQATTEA
Sequence of Carbonic anhydrase 4 (P22748 whole entry): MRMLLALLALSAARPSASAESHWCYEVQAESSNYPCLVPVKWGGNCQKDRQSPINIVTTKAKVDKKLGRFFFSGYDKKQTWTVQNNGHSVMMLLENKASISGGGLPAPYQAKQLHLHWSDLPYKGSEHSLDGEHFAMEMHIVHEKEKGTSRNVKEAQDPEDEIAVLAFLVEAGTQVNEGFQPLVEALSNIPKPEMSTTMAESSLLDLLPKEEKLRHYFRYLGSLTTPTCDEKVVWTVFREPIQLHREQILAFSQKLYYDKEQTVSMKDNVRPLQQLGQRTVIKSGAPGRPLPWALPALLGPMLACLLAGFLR
Sequence of Carbonic anhydrase 7 (P43166 whole entry): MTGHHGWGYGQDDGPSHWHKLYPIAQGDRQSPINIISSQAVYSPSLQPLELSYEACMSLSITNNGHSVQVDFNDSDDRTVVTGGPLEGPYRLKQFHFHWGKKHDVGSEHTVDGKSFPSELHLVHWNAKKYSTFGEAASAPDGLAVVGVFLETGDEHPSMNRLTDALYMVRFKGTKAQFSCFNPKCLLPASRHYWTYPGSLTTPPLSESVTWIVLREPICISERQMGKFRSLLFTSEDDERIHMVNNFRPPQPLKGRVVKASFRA
Sequence of Carbonic anhydrase 13 (Q9D6N1 whole entry): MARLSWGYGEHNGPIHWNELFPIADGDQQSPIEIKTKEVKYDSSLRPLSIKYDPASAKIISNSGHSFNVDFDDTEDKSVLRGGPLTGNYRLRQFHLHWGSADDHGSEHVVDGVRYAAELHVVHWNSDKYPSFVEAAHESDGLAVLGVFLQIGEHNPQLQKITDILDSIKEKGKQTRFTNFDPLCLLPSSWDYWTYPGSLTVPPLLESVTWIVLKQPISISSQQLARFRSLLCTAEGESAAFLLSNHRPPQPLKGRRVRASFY

## CC1(C)O[C@@H]2[C@@H](CO[C@@]3(CNS(N)(=O)=O)OC(C)(C)O[C@@H]23)O1
[1]
  pKi: 7.60
[2]
  pKi: 7.46
[3]
  pKi: 6.03
[4]
  pKi: 7.52
[5]
  pKi: 7.68
[6]
  pKi: 7.49
